Earlier results as cited in PMC12238723, “Phase I Clinical Trial of CVL218, a Novel PARP1/2 Inhibitor, in Patients with Advanced Solid Tumors” (MedComm, 2025).

Assays:
patients = conditions: cited from earlier work
[1] = set-up: method as in PMID 37806255; conditions: recommended dose of 300 mg BID; cited from earlier work

Row | Compound | grade ≥3 anemia incidence (patients) | increased risk of MDS/AML compared with placebo (patients) | incidence of MDS/AML (patients) | incidence of anemia (patients) | occurrence of grade ≥3 anemia (patients) | overall incidence of grade ≥3 AEs (patients) | rate of dose reduction due to AEs (patients) | treatment discontinuation rates (patients) | grade ≥3 gastrointestinal AEs (patients; comparison value, no reference given) | median Tmax [1]
1 | NC(=O)c1cccc2cn(-c3ccc([C@@H]4CCCNC4)cc3)nc12 [niraparib] | 14.7–22.5% | 48% | – | – | – | – | – | – | – | –
2 | O=C(c1cc(Cc2n[nH]c(=O)c3ccccc23)ccc1F)N1CCN(C(=O)C2CC2)CC1 [olaparib, Olaparib] | – | 158% | approximately 1% | 21 to 46% | 5.1–22% | 36–40% | 25–29% | 6–17% | 4.3% | 1.5 h
